Experimental data: patent publication US20200255411A1, “ISOINDOLINE DERIVATIVES” (VIIV HEALTHCARE UK LIMITED, priority 2015, published 2020)

System: HIV in the HTLV-1 transformed cell line MT-4
Test: MT4 assay (antiviral HIV activity)
Assay type: cell-based
Settings: MT-4 cells, readout at 96 hours with cell titer glo, 10 point dose response
Method: Antiviral HIV activity and cytotoxicity values for compounds of the invention from Table 1 were measured in parallel in the HTLV-1 transformed cell line MT-4 based on the method previously described (Hazen et al., 2007, In vitro antiviral activity of the novel, tyrosyl-based human immunodeficiency virus (HIV) type 1 protease inhibitor brecanavir (GW640385) in combination with other antiretrovirals and against a panel of protease inhibitor-resistant HIV (Hazen et al., “In vitro antiviral activity of the novel, tyrosyl-based human immunodeficiency virus (HIV) type 1 protease inhibitor brecanavir (GW640385) in combination with other antiretrovirals and against a panel of protease inhibitor-resistant HIV”, Antimicrob. Agents Chemother. 2007, 51: 3147-3154; and Pauwels et al., “Sensitive and rapid assay on MT-4 cells for the detection of antiviral compounds against the AIDS virus”, J. of Virological Methods 1987, 16: 171-185).
Luciferase activity was measured 96 hours later by adding a cell titer glo (Promega, Madison, Wis.). Percent inhibition of cell protection data was plotted relative to no compound control. Under the same condition, cytotoxicity of the compounds was determined using cell titer Glo™ (Promega, Madison, Wis.). IC50s were determined from a 10 point dose response curve using 3-4-fold serial dilution for each compound, which spans a concentration range >1000 fold. […]

## Cc1c(-c2c(C)c3c(c(C)c2[C@H](OC(C)(C)C)C(=O)O)CN(C(=O)c2cccc(F)c2)[C@@H]3C)cc(F)c2c1CCCO2 (atropisomer, axis not shown; (M)) [Example 1]
  IC50: 1.7 nM
